What is called IC50 is the concentration needed to halve the response being measured.

This note sets out measurements from patent US8431593B2, “Heteroaryl amide derivatives” (H. Lundbeck A/S, priority 2006, dated 2013).

In the first assay the target is T1, P2X7 receptor (Homo sapiens, UniProt Q99572).
T1 construct: host or cells: SH-SY5Y
T1 sequence (Q99572 1-595): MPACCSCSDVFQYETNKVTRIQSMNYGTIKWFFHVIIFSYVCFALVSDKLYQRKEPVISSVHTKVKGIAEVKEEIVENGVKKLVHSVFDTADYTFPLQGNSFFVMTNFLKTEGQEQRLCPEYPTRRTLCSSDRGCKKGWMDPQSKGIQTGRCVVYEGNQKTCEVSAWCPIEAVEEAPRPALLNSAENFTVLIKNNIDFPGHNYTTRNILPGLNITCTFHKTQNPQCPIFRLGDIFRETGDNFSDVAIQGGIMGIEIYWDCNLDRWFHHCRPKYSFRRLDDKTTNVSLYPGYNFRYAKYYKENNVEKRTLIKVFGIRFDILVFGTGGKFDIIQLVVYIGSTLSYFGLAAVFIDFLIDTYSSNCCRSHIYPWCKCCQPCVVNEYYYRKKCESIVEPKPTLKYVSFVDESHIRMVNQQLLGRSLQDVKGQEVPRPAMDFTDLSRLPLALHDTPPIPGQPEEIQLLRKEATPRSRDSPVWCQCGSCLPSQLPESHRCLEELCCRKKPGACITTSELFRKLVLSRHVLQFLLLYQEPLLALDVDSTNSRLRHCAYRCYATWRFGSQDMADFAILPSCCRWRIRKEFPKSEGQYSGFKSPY
Description: P2X7 calcium mobilization assay, high throughput, antagonist activity (Example 4A).
Conditions: not given
It is filed as cell-based. The gist of the method:
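FLIPR^TETRA calcium read-out: maximum RFU per well minus average no-agonist control, with agonist wells giving the average positive maximum. Cells seeded at 100,000/well one day ahead, dye-loaded 1 h, rinsed, then exposed to compound for 1 h at room temperature.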
For the compound `CN(CCO)Cc1cn2c(C(=O)NCC34CC5CC(CC(C5)C3)C4)cccc2n1` [Compound 131, N-(adamantan-1-ylmethyl)-2-{[(2-hydroxyethyl)(meth-yl)amino]methyl}imi-dazo[1,2-a]pyridine-5-carboxamide], the IC50 was < 2000 nM. With `CN(C)CCOCc1cn2c(C(=O)NCC34CC5CC(CC(C5)C3)C4)cccc2n1` [Compound 127, N-(adamantan-1-ylmethyl)-2-{[2-(dimethylamino)eth-oxy]methyl}imi-dazo[1,2-a]pyridine-5-carboxamide], the IC50 is < 2000 nM.

The same assay, now with this note: 50% decrease in the fluorescence response of cells exposed to 80 μM 2′(3′)-O-(4-benzoyl-benzoyl)adenosine 5′-triphosphate; Example 4A; read-out: IC50.
For `CC1(C)[C@@H]2CC[C@@H](CNC(=O)c3cccc4nc(CC(=O)NCC5CCCN5)cn34)[C@H]1C2` (stereo partly drawn) [Compound 590, N-{[(1R,2R,5R)-6,6-dimethylbicyclo[3.1.1]hept-2-yl]methyl}-2-{2-oxo-2-[(pyrrolidin-2-ylmethyl)amino]ethyl} imidazo[1,2-a]pyridine-5-carboxamide], the IC50 was < 2000 nM. On the same count and under the same terms, with `CCN(Cc1cn2c(C(=O)NCC34CC5CC(CC(C5)C3)C4)cccc2n1)C(=O)C(=O)O` [Compound 546, [({5-[(adamantan-1-ylmethyl)carbamoyl]imidazo[1,2-a]pyridin-2-yl}methyl)(ethyl)amino] (oxo)acetic acid] the figure was < 2000 nM; with `CO[C@H]1CCN(C(=O)c2cn3c(C(=O)NC[C@@H]4CC[C@H]5C[C@@H]4C5(C)C)cccc3n2)C1` [Compound 492, N-{[(1S,2R,5S)-6,6-dimethylbicyclo[3.1.1]hept-2-yl]methyl}-2-{[(3S)-3-methoxypyrrolidin-1-yl]carbonyl}imidazo [1,2-a]pyridine-5-carboxamide], < 2000 nM; with `CC(C)[C@@H]1CN(C(=O)Cc2cn3c(C(=O)NC[C@@H]4CC[C@@H]5C[C@H]4C5(C)C)cccc3n2)CCN1` [Compound 571, N-{[(1R,2R,5R)-6,6-dimethylbicyclo[3.1.1]hept-2-yl]methyl}-2-{2-[(3R)-3-isopropylpiperazin-1-yl]-2-oxoethyl}imidazo[1,2-a]pyridine-5-carboxamide], < 2000 nM. `CCN(Cc1cn2c(C(=O)NCC34CC5CC(CC(C5)C3)C4)cccc2n1)C(=O)c1ncc[nH]1` [Compound 551, N-(adamantan-1-ylmethyl)-2-{[ethyl(1H-imidazol-2-ylcarbonyl)amino]methyl}imidazo[1,2-a]pyridine-5-carboxamide]: the IC50 was < 2000 nM. On the same count and under the same terms, the figure for `CC1CCN(C(=O)c2cn3c(C(=O)NC[C@@H]4CC[C@H]5C[C@@H]4C5(C)C)cccc3n2)CC1` [Compound 463, N-{[(1S,2R,5S)-6,6-dimethylbicyclo[3.1.1]hept-2-yl]methyl}-2-[(4-methylpiperidin-1-yl)carbonyl]imidazo[l, 2-a]pyridine-5-carboxamide] is < 2000 nM.

Still in this assay, the particulars now being: 50% decrease in the fluorescence response of cells exposed to 80 μM of 2′(3′)-O-(4-benzoyl-benzoyl)adenosine 5′-triphosphate; Example 4A; read-out: IC50.
As to `CN1CCC(NC(=O)c2cn3c(C(=O)NCC45CC6CC(CC(C6)C4)C5)cccc3n2)CC1` [Compound 659, 5-N-(adamantan-1-ylmethyl)-2-N-(1-methylpiperidin-4-yl)imidazo[1,2-a]pyridine-2,5-dicarboxamide], the half-maximal inhibitory concentration (IC50) is < 2000 nM. The same measure, in the same setting: with `CC(C)CC(CNC(=O)c1cccc2nc(CN3CC[C@@H](NC(=O)OC(C)(C)C)C3)cn12)c1ccc(Cl)cc1` (some centres unmarked) [Compound 766, tert-butyl{1-[(5-{[2-(4-chlorophenyl)-4-methylpentyl]carbamoyl}imidazo[1,2-a]pyridin-2-yl)methyl]pyrrolidin-3-yl}carbamate] the figure was < 2000 nM; with `CC(C(=O)N1CCC[C@@H](NC(=O)OC(C)(C)C)C1)c1cn2c(C(=O)NCC34CC5CC(CC(C5)C3)C4)cccc2n1` (stereo in doubt) [Compound 750, tert-butyl [1-(2-{5-[(adamantan-1-ylmethyl)carbamoyl]imidazo[1,2-a]pyridin-2-yl}propanoyl)piperidin-3-yl]carbamate], < 2000 nM; with `O=C(NCC12CC3CC(CC(C3)C1)C2)c1cccc2nc(Cn3nnc(-c4cccnc4)n3)cn12` [Compound 813, N-(adamantan-1-ylmethyl)-2-[(5-pyridin-3-yl-2H-tetrazol-2-yl)methyl] imidazo[1,2-a] pyridine-5-carboxamide], < 2000 nM. As to `COC(=O)C(Cc1cn2c(C(=O)NCC34CC5CC(CC(C5)C3)C4)cccc2n1)c1ccccn1` (centres unmarked) [Compound 758, methyl 3-{5-[(adamantan-1-ylmethyl)carbamoyl]imidazo[1,2-a]pyridin-2-yl}-2-pyridin-2-ylpropanoate], the IC50 was < 2000 nM.

`CN(CC1CCCCN1C)C(=O)c1cn2c(C(=O)NCC34CC5CC(CC(C5)C3)C4)cccc2n1` (centres unmarked) [Compound 707, 5-N-(adamantan-1-ylmethyl)-2-N-methyl-2-N-[(1-methylpiperidin-2-yl)methyl]imidazo[1,2-a]pyridine-2,5-dicarboxamide]: the IC50 was < 2000 nM.

As for `O=C(NCc1cccnc1)c1cn2c(C(=O)NCC34CC5CC(CC(C5)C3)C4)cccc2n1` [Compound 655, 5-N-(adamantan-1-ylmethyl)-2-N-(pyridin-3-ylmethyl) imidazo[1,2-a]pyridine-2,5-dicarboxamide], the IC50 was < 2000 nM.

The assay is the same for the next values; noted with them: 50% decrease in the fluorescence response of cells exposed to 80 μM of 2′(3′)-O-(4-benzoyl-benzoyl)adenosine 5′-triphosphate; determined as in Example 4A; read-out: IC50.
Consider `CC(C)(C)OC(=O)N1CC[C@@H](NC(=O)Cc2cn3c(C(=O)NCC4(c5ccc(Cl)cc5)CCCCC4)cccc3n2)C1` [Compound 968, tert-butyl (3R)-3-({[5-({[1-(4-chlorophenyl)cyclohexyl]methyl}carbamoyl)imidazo[1,2-a]pyridin-2-yl]acetyl}amino) pyrrolidine-1-carboxylate], for which the 50% inhibitory concentration (IC50) is < 2000 nM. On the same count and under the same terms, the figure for `CC(C)CC(CNC(=O)c1cccc2nc(CC(=O)N3CCC[C@@H](N)C3)cn12)c1ccc(Cl)cc1` (stereo partly drawn) [Compound 839, 2-{2-[(3R)-3-aminopiperidin-1-yl]-2-oxoethyl}-N-[2-(4-chlorophenyl)-4-methylpentyl] imidazo[1,2-a] pyridine-5-carboxamide] is < 2000 nM; for `CC(O)CNC(=O)Cc1cn2c(C(=O)NCC3(c4cccnc4)CCCCC3)cccc2n1` (centres unmarked) [Compound 857, 2-{2-[(2-hydroxypropyl)amino]-2-oxoethyl}-N-[(1-pyridin-3-ylcyclohexyl)methyl] imidazo[1,2-a] pyridine-5-carboxamide] it is < 2000 nM.

Still in this assay, the particulars now being: P2X7 calcium mobilization, Example 4A; 50% decrease in the fluorescence response of cells exposed to 80 μM of (2′(3′)-O-(4-benzoyl-benzoyl)adenosine 5′-triphosephate); read-out: IC50.
As for `CC(C)CC(CNC(=O)c1cccc2nc(CN3CCOCC3)cn12)c1ccc(Cl)cc1` (centres unmarked) [Compound 1038, N-[2-(4-chlorophenyl)-4-methylpentyl]-2-(morpholin-4-ylmethyl) imidazo[1,2-a]pyridine-5-carboxamide], the IC50 is < 2000 nM.

Still in this assay, the particulars now being: SH-SY5Y cells; 50% decrease in fluorescence response to 80 μM BzATP; read-out: IC50.
In the case of `CS(=O)(=O)C1CCN(C(=O)c2cn3c(C(=O)NCC45CC6CC(CC(C6)C4)C5)cccc3n2)CC1` [Compound 96, N-(adamantan-1-ylmethyl)-2-{[4-(methyl-sulfonyl)piperidin-1-yl]carbonyl}imidazo[1,2-a]pyridine-5-carboxamide], the 50% inhibitory concentration (IC50) is < 2000 nM. Consider `CC(O)CCNC(=O)Cc1cn2c(C(=O)NCC34CC5CC(CC(C5)C3)C4)cccc2n1` (centres unmarked) [Compound 31, N-(adamantan-1-ylmethyl)-2-{2-[(3-hydroxybutyl)amino]-2-oxoethyl}imidazo[1,2-a]pyridine-5-carboxamide], for which the half-maximal inhibitory concentration (IC50) is < 2000 nM. Turning to `CN(CCCC(C)(C)O)C(=O)Cc1cn2c(C(=O)NCC34CC5CC(CC(C5)C3)C4)cccc2n1` [Compound 59, N-(adamantan-1-ylmethyl)-2-{2-[(4-hydroxy-4-methylpentyl)(meth-yl)amino]-2-oxoethyl}imidazo[1,2-a]pyridine-5-carboxamide], the IC50 is < 2000 nM. On the same count and under the same terms, the figure for `CC(=O)NCCc1cn2c(C(=O)NCC34CC5CC(CC(C5)C3)C4)cccc2n1` [Compound 202, 2-(2-acetamidoethyl)-N-(adamantan-1-ylmethyl)imidazo[1,2-a]pyridine-5-carboxamide] is < 2000 nM.

The same assay, now with this note: fluorescence response of cells exposed to 80 μM 2′(3′)-O-(4-benzoyl-benzoyl)adenosine 5′-triphosphate; Example 4A; read-out: IC50.
`N#Cc1ccc(-c2cn3c(C(=O)NCC45CC6CC(CC(C6)C4)C5)cccc3n2)cc1` [Compound 298, N-(adamantan-1-ylmethyl)-2-(4-cyanophenyl)imidazo [1,2-a]pyridine-5-carboxamide]: the IC50 was < 2000 nM.

`CC(C)CN(C)C(=O)c1cn2c(NC(=O)CC34CC5CC(CC(C5)C3)C4)cccc2n1` [Compound 367, 5-[(adamantan-1-ylacetyl)amino]-N-isobutyl-N-methylimidazo[1,2-a]pyridine-2-carboxamide]: the IC50 is < 2000 nM.

Consider `COCC1CCCCN1C(=O)Cc1cn2c(C(=O)NCC(CC(C)C)c3ccccc3)cccc2n1` (centres unmarked) [Compound 241, 2-{2-[2-(methoxymethyl)piperidin-1-yl]-2-oxoethyl}-N-(4-methyl-2-phenylpentyl)imidazo [1,2-a]pyridine-5-carboxamide], for which the IC50 is < 2000 nM.
